According to patent publication US10385031B2, “Substituted piperazines as selective HDAC1,2 inhibitors” (Regenacy Pharmaceuticals, LLC, priority 2016, dated 2019):

target: HDAC2 (Homo sapiens (Human), UniProt Q92769); assay: HDAC enzyme assay HDAC2; type: biochemical; settings: not given
Description: Compounds for testing were diluted in DMSO to 50 fold the final concentration and a ten-point three-fold dilution series was made. The compounds were diluted in assay buffer (50 mM HEPES, pH 7.4, 100 mM KCl, 0.001% Tween-20, 0.05% BSA, 20 μM TCEP) to 6-fold their final concentration. The HDAC enzymes (purchased from BPS Biosciences) were diluted to 1.5-fold their final concentration in assay buffer. The tripeptide substrate and trypsin at 0.05 μM final concentration were diluted in assay buffer at 6-fold their final concentration. The final enzyme concentrations used in these assays were 3.3 ng/ml (HDAC1), 0.2 ng/ml (HDAC2) and 0.08 ng/ml (HDAC3). The final substrate concentrations used were 16 μM (HDAC1), 10 μM (HDAC2) and 17 μM (HDAC3).
Five μl of compounds and 20 μl of enzyme were added to wells of a black, opaque 384 well plate in duplicate. Enzyme and compound were incubated together at room temperature for 10 minutes. Five μl of substrate was added to each well, the plate was shaken for 60 seconds and placed into a Victor 2 microtiter plate reader. The development of fluorescence was monitored for 60 min and the linear rate of the reaction was calculated. The IC50 was determined using Graph Pad Prism by a four parameter curve fit.

Chain of HDAC2 (Q92769 whole entry): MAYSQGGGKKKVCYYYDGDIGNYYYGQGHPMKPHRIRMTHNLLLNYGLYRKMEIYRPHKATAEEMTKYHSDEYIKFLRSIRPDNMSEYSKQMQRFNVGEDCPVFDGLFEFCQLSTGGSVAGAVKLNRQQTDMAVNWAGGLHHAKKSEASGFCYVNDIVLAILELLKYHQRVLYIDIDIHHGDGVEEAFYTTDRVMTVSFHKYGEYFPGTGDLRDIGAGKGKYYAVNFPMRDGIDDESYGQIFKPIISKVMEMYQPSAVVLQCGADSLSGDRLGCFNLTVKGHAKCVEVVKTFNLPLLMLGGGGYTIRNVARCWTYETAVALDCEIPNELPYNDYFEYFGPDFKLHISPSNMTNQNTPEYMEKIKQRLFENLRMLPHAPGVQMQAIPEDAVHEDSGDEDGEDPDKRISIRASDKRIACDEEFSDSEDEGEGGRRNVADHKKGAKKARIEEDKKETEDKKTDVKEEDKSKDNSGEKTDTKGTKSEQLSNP

SMILES | IC50
Nc1ccc(-c2ccc(F)cc2)cc1NC(=O)c1ccc2nc(N3CCNCC3)ccc2c1 [Compound 035] | 10 to 500 nM
Nc1ccc(-c2ccc(F)cc2)cc1NC(=O)c1ccc(N2CCNCC2)nc1 [Compound 036] | 10 to 500 nM
Nc1ccc(-c2ccc(F)cc2)cc1NC(=O)c1ccc(N2CCNCC2)cn1 [Compound 038] | 10 to 500 nM
Nc1ccc(-c2cccs2)cc1NC(=O)c1cnc(N2CCNCC2)cn1 [Compound 040] | < 10 nM
Nc1ccc(-c2ccc(F)cc2)cc1NC(=O)c1ccc(N2CCNCC2)s1 [Compound 068] | 10 to 500 nM
Nc1ccc(-c2ccccc2)cc1NC(=O)c1cc(N2CCNCC2)cs1 [Compound 069] | 10 to 500 nM
CN1CCN(c2ccc(C(=O)Nc3cc(-c4ccccc4)ccc3N)cn2)CC1 [Compound 070] | 10 to 500 nM
Nc1ccc(-c2cccnc2)cc1NC(=O)c1ccc(N2CCNCC2)nc1 [Compound 072] | 10 to 500 nM
Nc1ccc(-c2ccccn2)cc1NC(=O)c1ccc(N2CCNCC2)nc1 [Compound 073] | 10 to 500 nM
Nc1ccc(-c2cccc(F)c2)cc1NC(=O)c1ccc(N2CCNCC2)nc1 [Compound 077] | 10 to 500 nM
CN1CCN(c2ccc(C(=O)Nc3cc(-c4ccccc4)ccc3N)nc2)CC1 [Compound 079] | 10 to 500 nM

The remaining lines, values ahead:

IC50 | SMILES
10 to 500 nM | CN1CCN(c2ccc(C(=O)Nc3cc(-c4ccco4)ccc3N)cn2)CC1 [Compound 074]
10 to 500 nM | CN1CCN(c2ccc(C(=O)Nc3cc(-c4ccoc4)ccc3N)cn2)CC1 [Compound 075]
10 to 500 nM | Nc1ccc(-c2ccccc2F)cc1NC(=O)c1ccc(N2CCNCC2)nc1 [Compound 076]
10 to 500 nM | Nc1ccc(-c2cc(F)cc(F)c2)cc1NC(=O)c1ccc(N2CCNCC2)nc1 [Compound 078]
< 10 nM | CN1CCN(c2ccc(C(=O)Nc3cc(-c4cccs4)ccc3N)nc2)CC1 [Compound 080]
10 to 500 nM | Nc1ccc(-c2ccccn2)cc1NC(=O)c1ccc(N2CCNCC2)cn1 [Compound 081]

target: HDAC1 (Homo sapiens (Human), UniProt Q13547); assay: HDAC enzyme assay HDAC1; type: biochemical; settings: not given
Sequence (Q13547 whole entry): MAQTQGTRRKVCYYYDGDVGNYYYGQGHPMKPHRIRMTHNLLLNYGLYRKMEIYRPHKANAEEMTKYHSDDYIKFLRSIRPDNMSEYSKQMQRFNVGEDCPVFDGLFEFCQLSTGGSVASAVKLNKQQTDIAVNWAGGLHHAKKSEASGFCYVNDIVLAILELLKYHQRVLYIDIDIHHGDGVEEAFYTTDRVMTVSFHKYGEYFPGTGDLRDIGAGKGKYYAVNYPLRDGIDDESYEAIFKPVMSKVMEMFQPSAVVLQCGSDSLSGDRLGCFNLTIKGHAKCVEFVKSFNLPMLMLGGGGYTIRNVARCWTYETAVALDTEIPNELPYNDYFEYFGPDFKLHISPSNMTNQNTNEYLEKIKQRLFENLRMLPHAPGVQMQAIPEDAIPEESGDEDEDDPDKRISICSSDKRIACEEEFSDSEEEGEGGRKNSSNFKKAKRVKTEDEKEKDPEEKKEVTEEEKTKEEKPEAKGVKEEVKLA

SMILES | IC50
Nc1ccc(-c2ccc(F)cc2)cc1NC(=O)c1ccc2nc(N3CCNCC3)ccc2c1 [Compound 035] | < 10 nM
Nc1ccc(-c2ccc(F)cc2)cc1NC(=O)c1ccc(N2CCNCC2)nc1 [Compound 036] | < 10 nM
Nc1ccc(-c2ccc(F)cc2)cc1NC(=O)c1ccc(N2CCNCC2)cn1 [Compound 038] | < 10 nM
Nc1ccc(-c2cccs2)cc1NC(=O)c1cnc(N2CCNCC2)cn1 [Compound 040] | < 10 nM
Nc1ccc(-c2ccc(F)cc2)cc1NC(=O)c1ccc(N2CCNCC2)s1 [Compound 068] | < 10 nM
Nc1ccc(-c2ccccc2)cc1NC(=O)c1cc(N2CCNCC2)cs1 [Compound 069] | 10 to 500 nM
CN1CCN(c2ccc(C(=O)Nc3cc(-c4ccccc4)ccc3N)cn2)CC1 [Compound 070] | < 10 nM
Nc1ccc(-c2cccnc2)cc1NC(=O)c1ccc(N2CCNCC2)nc1 [Compound 072] | 10 to 500 nM
Nc1ccc(-c2ccccn2)cc1NC(=O)c1ccc(N2CCNCC2)nc1 [Compound 073] | 10 to 500 nM
Nc1ccc(-c2cccc(F)c2)cc1NC(=O)c1ccc(N2CCNCC2)nc1 [Compound 077] | 10 to 500 nM
CN1CCN(c2ccc(C(=O)Nc3cc(-c4ccccc4)ccc3N)nc2)CC1 [Compound 079] | < 10 nM

Now from value to molecule:

IC50 | SMILES
< 10 nM | CN1CCN(c2ccc(C(=O)Nc3cc(-c4ccco4)ccc3N)cn2)CC1 [Compound 074]
< 10 nM | CN1CCN(c2ccc(C(=O)Nc3cc(-c4ccoc4)ccc3N)cn2)CC1 [Compound 075]
< 10 nM | Nc1ccc(-c2ccccc2F)cc1NC(=O)c1ccc(N2CCNCC2)nc1 [Compound 076]
> 500 nM | Nc1ccc(-c2cc(F)cc(F)c2)cc1NC(=O)c1ccc(N2CCNCC2)nc1 [Compound 078]
< 10 nM | CN1CCN(c2ccc(C(=O)Nc3cc(-c4cccs4)ccc3N)nc2)CC1 [Compound 080]
10 to 500 nM | Nc1ccc(-c2ccccn2)cc1NC(=O)c1ccc(N2CCNCC2)cn1 [Compound 081]

target: hERG (Homo sapiens (Human), UniProt Q12809); assay: hERG inhibition, whole-cell patch clamp; type: cell-based; settings: HEK293 cells stably transfected with hERG; unit inferred
Sequence (Q12809 whole entry): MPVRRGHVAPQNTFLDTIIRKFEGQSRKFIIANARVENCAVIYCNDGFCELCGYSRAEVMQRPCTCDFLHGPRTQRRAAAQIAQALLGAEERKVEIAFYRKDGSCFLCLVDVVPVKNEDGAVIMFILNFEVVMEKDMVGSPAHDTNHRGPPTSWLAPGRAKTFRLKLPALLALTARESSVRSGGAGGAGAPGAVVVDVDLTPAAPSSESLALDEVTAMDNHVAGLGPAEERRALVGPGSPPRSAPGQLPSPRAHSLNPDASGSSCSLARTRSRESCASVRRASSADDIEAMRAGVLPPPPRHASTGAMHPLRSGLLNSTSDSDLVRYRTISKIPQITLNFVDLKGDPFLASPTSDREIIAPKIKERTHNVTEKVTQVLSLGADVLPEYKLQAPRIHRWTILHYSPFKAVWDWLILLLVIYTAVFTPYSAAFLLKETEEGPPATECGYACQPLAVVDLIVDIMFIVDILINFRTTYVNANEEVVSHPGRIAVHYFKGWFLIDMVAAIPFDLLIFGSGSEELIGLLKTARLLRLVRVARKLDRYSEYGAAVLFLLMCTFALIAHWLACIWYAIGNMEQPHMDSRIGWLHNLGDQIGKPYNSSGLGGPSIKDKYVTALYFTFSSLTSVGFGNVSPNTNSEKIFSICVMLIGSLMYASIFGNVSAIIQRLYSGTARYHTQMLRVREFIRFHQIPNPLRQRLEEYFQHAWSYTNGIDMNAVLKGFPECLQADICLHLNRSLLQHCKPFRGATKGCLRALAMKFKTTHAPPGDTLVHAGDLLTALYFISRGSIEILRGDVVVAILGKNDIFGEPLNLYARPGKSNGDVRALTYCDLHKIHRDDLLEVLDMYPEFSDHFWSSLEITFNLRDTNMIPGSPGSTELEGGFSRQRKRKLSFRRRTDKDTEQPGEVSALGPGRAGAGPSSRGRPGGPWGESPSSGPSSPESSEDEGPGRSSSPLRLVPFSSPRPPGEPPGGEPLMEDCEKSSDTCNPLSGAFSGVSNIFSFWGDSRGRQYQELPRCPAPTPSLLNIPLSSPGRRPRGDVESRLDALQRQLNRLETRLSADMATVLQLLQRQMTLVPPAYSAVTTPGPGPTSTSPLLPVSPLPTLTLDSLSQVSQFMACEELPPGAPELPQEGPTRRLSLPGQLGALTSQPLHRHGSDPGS
Description: For hERG inhibition assays, the cells used were HEK293 cells stably transfected with hERG (cell line obtained from Cytocentrics Inc. 3463 Magic Drive San Antonio, Tex. 78229). Composition of External Solution: NaCl, 137 mM; KCl, 4 mM; MgCl2, 1.0 mM; CaCl2, 1.8 mM; HEPES 10 mM; Dextrose 11 mM; Adjusted to a pH of 7.4 with NaOH. Composition of Internal Solution: KCl, 130.0 mM; MgCl2, 1.0 mM; HEPES, 5.0 mM; EGTA, 5.0 mM; NaCl 7.0 mM. Adjusted to a pH of 7.2 using KOH. Test Concentrations: 0.1, 1, 10, 100 μM. Vehicle: DMSO. Experiments were performed at 34+/−1° C. Current was recorded using the whole-cell patch clamp technique on the Cytopatch automated platform. hERG current was elicited with the following voltage protocol: hERG current amplitude was measured as the peak current at −50 mV (tail current). […] Each cell served as its own control. Data are presented as the IC50 calculated by non-linear regression analysis.

SMILES | IC50
Nc1ccc(-c2ccc(F)cc2)cc1NC(=O)c1ccc(N2CCNCC2)cn1 [Compound 038] | 2500 nM

test system: not listed separately; assay: Rat pharmacokinetics, cassette dosing (IV and PO); type: in vivo; settings: rat, plasma, 5 mg/kg; male SD rats, oral AUC to IV AUC, dose adjusted
Description: Male SD rats were fasted overnight. Compounds of the invention were dissolved in dimethyl acetamide at 10 times the final concentration, then Solutol HS 15 (BASF) was added to a final concentration of 10%. Finally 80% saline was added and vortexed to achieve a clear solution. For the IV dosing three animals were injected via the foot dorsal vein with 1 mg/kg compound. For the PO dosing 5 mg/kg of compound was delivered by oral gavage. Blood was collected via the tail vein into K2EDTA tubes at 5 minutes, 15 minutes, 30 minutes, 1 hour, 2 hours, 4 hours, 8 hours and 24 hours after dosing. The blood was centrifuged at 2000 g for 5 minutes at 4° C. to obtain plasma. The plasma was extracted with acetonitrile and the level of compound was analyzed by LC/MS/MS. The level of compound in plasma was calculated from a standard curve in rat plasma. The IV clearance (L/h/kg) and area under the curve (h*ng/mL) were calculated using WinNonLin software. The dose adjusted area under the curve for the IV and oral dosing were used to calculate the oral bioavailability.
Pharmacokinetic properties were assessed in a rat cassette dosing experiment. The IV clearance (IV Clr.) is in units of L/hr/kg. The oral maximum plasma concentration (PO Cmax) is in units of ng/ml. The oral plasma half-life (PO T½) is in units of hours. The oral area under the curve (PO AUC) is in units of hours*ng/ml. The fraction absorbed by the oral route (F %) is a percentage of the oral area under the curve to the IV area under the curve, dose adjusted.

bioavailability | SMILES
70.5% | Nc1ccc(-c2ccc(F)cc2)cc1NC(=O)c1ccc2nc(N3CCNCC3)ccc2c1 [Compound 035]
69.1% | Nc1ccc(-c2ccc(F)cc2)cc1NC(=O)c1ccc(N2CCNCC2)nc1 [Compound 036]

SMILES | bioavailability
Nc1ccc(-c2cccs2)cc1NC(=O)c1cnc(N2CCNCC2)cn1 [Compound 040] | 151%

same assay, conditions: rat; male SD rats, IV 1 mg/kg, plasma

IV clearance | SMILES
2.83 mL/min/kg | Nc1ccc(-c2ccc(F)cc2)cc1NC(=O)c1ccc2nc(N3CCNCC3)ccc2c1 [Compound 035]
7 mL/min/kg | Nc1ccc(-c2ccc(F)cc2)cc1NC(=O)c1ccc(N2CCNCC2)nc1 [Compound 036]

SMILES | IV clearance
Nc1ccc(-c2cccs2)cc1NC(=O)c1cnc(N2CCNCC2)cn1 [Compound 040] | 26.7 mL/min/kg

same assay, conditions: rat; male SD rats, PO 5 mg/kg, plasma

AUC | Cmax | SMILES
20200 ng·h/mL | 1870 ng/mL | Nc1ccc(-c2ccc(F)cc2)cc1NC(=O)c1ccc2nc(N3CCNCC3)ccc2c1 [Compound 035]
7280 ng·h/mL | 500 ng/mL | Nc1ccc(-c2ccc(F)cc2)cc1NC(=O)c1ccc(N2CCNCC2)nc1 [Compound 036]

SMILES | AUC | Cmax
Nc1ccc(-c2cccs2)cc1NC(=O)c1cnc(N2CCNCC2)cn1 [Compound 040] | 3340 ng·h/mL | 211 ng/mL

same assay, conditions: rat; male SD rats, PO 5 mg/kg, plasma; read-out: PO T½ (converted)

half-life | SMILES
4.4 h | Nc1ccc(-c2ccc(F)cc2)cc1NC(=O)c1ccc2nc(N3CCNCC3)ccc2c1 [Compound 035]
7.3 h | Nc1ccc(-c2ccc(F)cc2)cc1NC(=O)c1ccc(N2CCNCC2)nc1 [Compound 036]

SMILES | half-life
Nc1ccc(-c2cccs2)cc1NC(=O)c1cnc(N2CCNCC2)cn1 [Compound 040] | 16.7 h

target: HDAC3 (Homo sapiens (Human), UniProt O15379); assay: HDAC enzyme assay HDAC3; type: biochemical; settings: not given
Description: Compounds for testing were diluted in DMSO to 50 fold the final concentration and a ten-point three-fold dilution series was made. The compounds were diluted in assay buffer (50 mM HEPES, pH 7.4, 100 mM KCl, 0.001% Tween-20, 0.05% BSA, 20 μM TCEP) to 6-fold their final concentration. The HDAC enzymes (purchased from BPS Biosciences) were diluted to 1.5-fold their final concentration in assay buffer. The tripeptide substrate and trypsin at 0.05 μM final concentration were diluted in assay buffer at 6-fold their final concentration. The final enzyme concentrations used in these assays were 3.3 ng/ml (HDAC1), 0.2 ng/ml (HDAC2) and 0.08 ng/ml (HDAC3). The final substrate concentrations used were 16 μM (HDAC1), 10 μM (HDAC2) and 17 μM (HDAC3). Five μl of compounds and 20 μl of enzyme were added to wells of a black, opaque 384 well plate in duplicate. Enzyme and compound were incubated together at room temperature for 10 minutes. Five μl of substrate was added to each well, the plate was shaken for 60 seconds and placed into a Victor 2 microtiter plate reader. The development of fluorescence was monitored for 60 min and the linear rate of the reaction was calculated. The IC50 was determined using Graph Pad Prism by a four parameter curve fit. In Table 4 below, letter designations are defined as follows: […]

Chain of HDAC3 (O15379 whole entry): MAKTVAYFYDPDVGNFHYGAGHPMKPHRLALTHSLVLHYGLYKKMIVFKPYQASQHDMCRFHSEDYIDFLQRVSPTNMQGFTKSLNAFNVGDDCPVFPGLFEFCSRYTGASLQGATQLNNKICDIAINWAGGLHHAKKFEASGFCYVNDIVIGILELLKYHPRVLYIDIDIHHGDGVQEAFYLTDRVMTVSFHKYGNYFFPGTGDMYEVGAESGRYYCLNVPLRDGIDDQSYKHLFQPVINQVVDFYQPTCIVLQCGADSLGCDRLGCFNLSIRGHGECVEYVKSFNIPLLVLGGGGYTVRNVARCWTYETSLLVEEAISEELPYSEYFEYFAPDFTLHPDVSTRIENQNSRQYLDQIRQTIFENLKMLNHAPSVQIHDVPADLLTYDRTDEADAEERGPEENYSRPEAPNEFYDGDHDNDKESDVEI
Chain of HDAC3 (Q9Y618 395-489 partner): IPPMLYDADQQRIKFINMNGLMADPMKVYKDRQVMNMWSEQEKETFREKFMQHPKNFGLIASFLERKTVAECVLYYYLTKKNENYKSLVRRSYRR

SMILES | IC50
Nc1ccc(-c2ccc(F)cc2)cc1NC(=O)c1ccc2nc(N3CCNCC3)ccc2c1 [Compound 035] | 10 to 500 nM
Nc1ccc(-c2ccc(F)cc2)cc1NC(=O)c1ccc(N2CCNCC2)nc1 [Compound 036] | 10 to 500 nM
Nc1ccc(-c2ccc(F)cc2)cc1NC(=O)c1ccc(N2CCNCC2)cn1 [Compound 038] | 10 to 500 nM
Nc1ccc(-c2cccs2)cc1NC(=O)c1cnc(N2CCNCC2)cn1 [Compound 040] | 10 to 500 nM
Nc1ccc(-c2ccc(F)cc2)cc1NC(=O)c1ccc(N2CCNCC2)s1 [Compound 068] | 10 to 500 nM
Nc1ccc(-c2ccccc2)cc1NC(=O)c1cc(N2CCNCC2)cs1 [Compound 069] | > 500 nM
CN1CCN(c2ccc(C(=O)Nc3cc(-c4ccccc4)ccc3N)cn2)CC1 [Compound 070] | 10 to 500 nM
Nc1ccc(-c2cccnc2)cc1NC(=O)c1ccc(N2CCNCC2)nc1 [Compound 072] | 10 to 500 nM
Nc1ccc(-c2ccccn2)cc1NC(=O)c1ccc(N2CCNCC2)nc1 [Compound 073] | > 500 nM
Nc1ccc(-c2cccc(F)c2)cc1NC(=O)c1ccc(N2CCNCC2)nc1 [Compound 077] | 10 to 500 nM
CN1CCN(c2ccc(C(=O)Nc3cc(-c4ccccc4)ccc3N)nc2)CC1 [Compound 079] | 10 to 500 nM

Continued, values first:

IC50 | SMILES
10 to 500 nM | CN1CCN(c2ccc(C(=O)Nc3cc(-c4ccco4)ccc3N)cn2)CC1 [Compound 074]
10 to 500 nM | CN1CCN(c2ccc(C(=O)Nc3cc(-c4ccoc4)ccc3N)cn2)CC1 [Compound 075]
10 to 500 nM | Nc1ccc(-c2ccccc2F)cc1NC(=O)c1ccc(N2CCNCC2)nc1 [Compound 076]
> 500 nM | Nc1ccc(-c2cc(F)cc(F)c2)cc1NC(=O)c1ccc(N2CCNCC2)nc1 [Compound 078]
10 to 500 nM | CN1CCN(c2ccc(C(=O)Nc3cc(-c4cccs4)ccc3N)nc2)CC1 [Compound 080]
> 500 nM | Nc1ccc(-c2ccccn2)cc1NC(=O)c1ccc(N2CCNCC2)cn1 [Compound 081]
